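Step 1: Grow cells in 96-well plates. Step 2: Expose to compound for 48 hours at 5 concentrations. Step 3: Interpolate endpoints linearly; if unreached, use highest concentration. GI50 is the concentration that inhibits growth by half.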 Active and inactive are the calls of the source. Rule as the data show it: active = GI50 up to about 1.1 µM and inactive = higher.
Assays:
Experiment in all cases: NCI tumour cell line growth inhibition, 48 h
SF-539 = test system: SF-539
OVCAR-4 = test system: OVCAR-4
BT-549 = test system: BT-549
OVCAR-3 = test system: OVCAR-3
A549 = test system: A549
SR = test system: SR
MDA-MB-231 = test system: MDA-MB-231
OVCAR-5 = test system: OVCAR-5
UO-31 = test system: UO-31
SK-MEL-5 = test system: SK-MEL-5
SK-MEL-28 = test system: SK-MEL-28
NCI-H522 = test system: NCI-H522
A498 = test system: A498
SF-295 = test system: SF-295
NCI/ADR-RES = test system: NCI/ADR-RES
SW-620 = test system: SW-620
EKVX = test system: EKVX
T47D = test system: T47D
HCC 2998 = test system: HCC 2998
SF-268 = test system: SF-268

C[N+]1(C)C2CC(OC(=O)C(CO)c3ccccc3)CC1C1OC12 (stereo unspecified)
GI50 (SF-539): > 100 µM (inactive) | GI50 (OVCAR-4): > 100 µM (inactive) | GI50 (BT-549): > 100 µM (inactive) | GI50 (OVCAR-3): > 100 µM (inactive) | GI50 (A549): > 100 µM (inactive) | GI50 (SR): > 100 µM (inactive) | GI50 (MDA-MB-231): > 100 µM (inactive) | GI50 (OVCAR-5): > 100 µM (inactive) | GI50 (UO-31): > 100 µM (inactive) | GI50 (SK-MEL-5): > 100 µM (inactive) | GI50 (SK-MEL-28): > 100 µM (inactive) | GI50 (NCI-H522): > 100 µM (inactive) | GI50 (A498): > 100 µM (inactive) | GI50 (SF-295): > 100 µM (inactive) | GI50 (NCI/ADR-RES): > 100 µM (inactive) | GI50 (SW-620): > 100 µM (inactive) | GI50 (EKVX): > 100 µM (inactive) | GI50 (T47D): > 100 µM (inactive)

CC(C)N(CC(=O)O)CC(=O)O
GI50 (HCC 2998): > 100 µM (inactive) | GI50 (SF-539): > 100 µM (inactive) | GI50 (OVCAR-4): > 100 µM (inactive) | GI50 (BT-549): > 100 µM (inactive) | GI50 (OVCAR-3): > 100 µM (inactive) | GI50 (A549): > 100 µM (inactive) | GI50 (SR): > 100 µM (inactive) | GI50 (MDA-MB-231): > 100 µM (inactive) | GI50 (OVCAR-5): > 100 µM (inactive) | GI50 (UO-31): > 100 µM (inactive) | GI50 (SK-MEL-5): > 100 µM (inactive) | GI50 (SK-MEL-28): > 100 µM (inactive) | GI50 (NCI-H522): > 100 µM (inactive) | GI50 (A498): > 100 µM (inactive) | GI50 (SF-295): > 100 µM (inactive) | GI50 (NCI/ADR-RES): > 100 µM (inactive) | GI50 (SW-620): > 100 µM (inactive) | GI50 (EKVX): > 100 µM (inactive) | GI50 (SF-268): > 100 µM (inactive) | GI50 (T47D): > 100 µM (inactive)

COc1ccc(C(=O)/C=C/c2cc(O)c(O)cc2F)c(OC)c1
GI50 (HCC 2998): 2.27 µM (inactive) | GI50 (SF-539): 6.04 µM (inactive) | GI50 (OVCAR-4): 12.5 µM (inactive) | GI50 (BT-549): 6.52 µM (inactive) | GI50 (OVCAR-3): 0.327 µM (active) | GI50 (A549): 10.5 µM (inactive) | GI50 (SR): 0.564 µM (active) | GI50 (MDA-MB-231): 13.6 µM (inactive) | GI50 (OVCAR-5): 15.3 µM (inactive) | GI50 (UO-31): 7.67 µM (inactive) | GI50 (SK-MEL-5): 8.05 µM (inactive) | GI50 (SK-MEL-28): 11.8 µM (inactive) | GI50 (NCI-H522): 0.354 µM (active) | GI50 (A498): 12.1 µM (inactive) | GI50 (SF-295): 5.65 µM (inactive) | GI50 (NCI/ADR-RES): 7.85 µM (inactive) | GI50 (SW-620): 6.82 µM (inactive) | GI50 (EKVX): 14.4 µM (inactive) | GI50 (SF-268): 7.28 µM (inactive) | GI50 (T47D): 4.05 µM (inactive)

CC(=O)OCC1OC(n2c(N)c(C#N)c(-c3cccc(Cl)c3)c(C#N)c2=S)C(OC(C)=O)C(OC(C)=O)C1OC(C)=O (stereo unspecified)
GI50 (HCC 2998): 10.8 µM (inactive) | GI50 (SF-539): 12.6 µM (inactive) | GI50 (OVCAR-4): 16.7 µM (inactive) | GI50 (BT-549): 20.7 µM (inactive) | GI50 (OVCAR-3): 14.8 µM (inactive) | GI50 (A549): 24.3 µM (inactive) | GI50 (SR): 14.7 µM (inactive) | GI50 (MDA-MB-231): 18.9 µM (inactive) | GI50 (OVCAR-5): 44.8 µM (inactive) | GI50 (UO-31): 40.2 µM (inactive) | GI50 (SK-MEL-5): 14.3 µM (inactive) | GI50 (SK-MEL-28): 38.7 µM (inactive) | GI50 (A498): 20.6 µM (inactive) | GI50 (SF-295): 31.2 µM (inactive) | GI50 (NCI/ADR-RES): 28.4 µM (inactive) | GI50 (SW-620): 32.7 µM (inactive) | GI50 (EKVX): 27.2 µM (inactive) | GI50 (SF-268): 13.3 µM (inactive) | GI50 (T47D): 18.9 µM (inactive)

O=c1oc2ccccc2c2nc3ccccc3cc12
GI50 (HCC 2998): 72.1 µM (inactive) | GI50 (SF-539): 11.6 µM (inactive) | GI50 (OVCAR-4): 22.1 µM (inactive) | GI50 (BT-549): 51.2 µM (inactive) | GI50 (A549): 99.8 µM (inactive) | GI50 (SR): > 100 µM (inactive) | GI50 (MDA-MB-231): 23 µM (inactive) | GI50 (OVCAR-5): > 100 µM (inactive) | GI50 (UO-31): 34.8 µM (inactive) | GI50 (SK-MEL-5): > 100 µM (inactive) | GI50 (SK-MEL-28): > 100 µM (inactive) | GI50 (NCI-H522): 46.2 µM (inactive) | GI50 (A498): 33 µM (inactive) | GI50 (SF-295): 34.8 µM (inactive) | GI50 (NCI/ADR-RES): 97.7 µM (inactive) | GI50 (SW-620): > 100 µM (inactive) | GI50 (EKVX): 79.8 µM (inactive) | GI50 (SF-268): > 10 µM (inactive) | GI50 (T47D): > 100 µM (inactive)

COC(=O)c1ccc(C)cc1CC1Cc2c(C)cccc2C1=O (stereo unspecified)
GI50 (HCC 2998): 11.1 µM (inactive) | GI50 (SF-539): 8.17 µM (inactive) | GI50 (OVCAR-4): 25.5 µM (inactive) | GI50 (BT-549): 4.99 µM (inactive) | GI50 (OVCAR-3): 3.96 µM (inactive) | GI50 (A549): 7.57 µM (inactive) | GI50 (SR): 9.35 µM (inactive) | GI50 (MDA-MB-231): 2.32 µM (inactive) | GI50 (OVCAR-5): 34.4 µM (inactive) | GI50 (UO-31): 15.9 µM (inactive) | GI50 (SK-MEL-5): 5.82 µM (inactive) | GI50 (SK-MEL-28): 15.2 µM (inactive) | GI50 (NCI-H522): 4.46 µM (inactive) | GI50 (A498): 4.95 µM (inactive) | GI50 (SF-295): 7.73 µM (inactive) | GI50 (NCI/ADR-RES): 3.35 µM (inactive) | GI50 (SW-620): 3.85 µM (inactive) | GI50 (EKVX): 18 µM (inactive) | GI50 (SF-268): 9.89 µM (inactive) | GI50 (T47D): 7.93 µM (inactive)

CN(C)c1ccc(C(=C2C=CC(=[N+](C)C)C=C2)c2c(O)c(S(=O)(=O)[O-])cc3cc(S(=O)(=O)O)ccc23)cc1
GI50 (HCC 2998): > 100 µM (inactive) | GI50 (SF-539): > 100 µM (inactive) | GI50 (OVCAR-4): > 100 µM (inactive) | GI50 (BT-549): > 100 µM (inactive) | GI50 (OVCAR-3): > 100 µM (inactive) | GI50 (A549): > 100 µM (inactive) | GI50 (SR): > 100 µM (inactive) | GI50 (MDA-MB-231): > 100 µM (inactive) | GI50 (OVCAR-5): > 100 µM (inactive) | GI50 (UO-31): > 100 µM (inactive) | GI50 (SK-MEL-5): > 100 µM (inactive) | GI50 (SK-MEL-28): > 100 µM (inactive) | GI50 (NCI-H522): > 100 µM (inactive) | GI50 (A498): > 100 µM (inactive) | GI50 (SF-295): > 100 µM (inactive) | GI50 (NCI/ADR-RES): > 100 µM (inactive) | GI50 (SW-620): > 100 µM (inactive) | GI50 (EKVX): > 100 µM (inactive) | GI50 (SF-268): > 100 µM (inactive) | GI50 (T47D): > 100 µM (inactive)
